Tests used:
5-HT2A receptor = biological target: T1, 5-HT2A receptor (Rattus norvegicus, UniProt P14842); test: cell-based; conditions: read-out: 5HT2A (pKb) (converted)
T1 construct: Eight strips of tissue (0.5 cm long) were cut. and were mounted in 10 ml organ baths; tissue Charles River Laboratories; host or cells: rat aorta strips, endothelium removed
Description: The rat aorta (approximately 7 cm) was isolated and removed from the animal (male Sprague Dawley rat, Charles River Laboratories, Hollister, Calif.). The endothelium was removed mechanically. Eight strips of tissue (0.5 cm long) were cut. and were mounted in 10 ml organ baths kept at 37° C. with Krebs solution (composition in mM: NaCl (118.2), KCl (4.6), CaCl2 (2.5), MgSO4 (1.2), KH2PO4 (1.2), NaHCO3 (24.8) and dextrose (10.0)) that was constantly aerated with carbogen gas (95% O2/5% CO2) to obtain a pH of 7.4. The tissues were subjected to a resting tension of 2 g (3 times, 15 minutes apart, equilibrated in Krebs solution). The tissues were then washed 15 minutes later. Ten minutes later, the tissues were then exposed to 0.1 μM phenylephrine. At the maximal effect, 1 μM acetylcholine was added to confirm the absence of endothelium and then washed twice, 2 minutes apart.
Contractions were recorded as changes in tension from baseline and expressed as a percentage of the maximum response of the agonist (5-HT) concentration-effect curve. Agonist concentration-response curves were fitted using a nonlinear iterative fitting program (GraphPad Prism) using the relationship of Parker and Waud (Parker, R. B. and Waud, D. R. (1971). Pharmacological estimation of drug-receptor dissociation constants. Statistical evaluation. I. Agonists. J. Pharmacol. Exp. Ther., 177, 1-12). Agonist potency was expressed as EC50 (molar concentration of agonist producing 50% of the maximum response). Concentration-ratios (CRs) were determined from EC50 values in the presence and absence of antagonist and antagonist affinity estimates (pKB and pA2 values) were determined. All data are expressed as mean±s.e. mean.

[1] = biological target: T2, human D2s dopamine receptors (Homo sapiens, UniProt P14416); test: hD2S receptor radioligand binding ([3H]spiperone); conditions: pKi reported on a scale of 1 through 5
T2 construct: expressed in transfected cells; host or cells: Chinese hamster ovary cells (membranes)
Description: (§1) Consistent with standard competition radioligand binding assays, the methodology was based on displacement of radioligand from tissues (or cell lines) bearing the receptor of interest (Cheng, Y. and Prusoff, W. H. (1973). Biochem. Pharmacol. 22, 3099-3108). The measurements were based on the binding of a single concentration of radiolabeled ligand in the presence of various concentrations of unlabeled ligand.
(§2) Tissues (or cellular plasma membrane fractions) were incubated in the presence of radioligand at equilibrium and in the presence of a range of concentrations of the test compounds (which were non-radiolabeled), and the displaced radioligand was separated from the membranes by filtration. Nonspecific binding was assessed by measuring displacement of the radioligand in the presence of a compound known to block binding of the radioligand to the receptor. Finally, the concentration-response relationship for radioligand displacement (corrected for non-specific binding) was used to assess binding of the test compound to the receptor.

[2] = biological target: T3, human D2L dopamine receptors (Homo sapiens, UniProt P14416); test: hD2L receptor radioligand binding ([3H]spiperone); conditions: pKi reported on a scale of 1 through 5; read-out: D2L (pKi) (converted)
T3 construct: expressed in transfected cells; host or cells: insect Sf9 cells (membranes)
Description: as §1, §2

human 5HT2C receptors = biological target: T4, human 5HT2C receptors (Homo sapiens, UniProt P28335); test: h5-HT2C receptor radioligand binding ([3H]Mesulergine); conditions: pKi reported on a scale of 1 through 5
T4 construct: expressed in transfected cells; host or cells: human embryo kidney cells (membranes)
T4 sequence (P28335 33-458): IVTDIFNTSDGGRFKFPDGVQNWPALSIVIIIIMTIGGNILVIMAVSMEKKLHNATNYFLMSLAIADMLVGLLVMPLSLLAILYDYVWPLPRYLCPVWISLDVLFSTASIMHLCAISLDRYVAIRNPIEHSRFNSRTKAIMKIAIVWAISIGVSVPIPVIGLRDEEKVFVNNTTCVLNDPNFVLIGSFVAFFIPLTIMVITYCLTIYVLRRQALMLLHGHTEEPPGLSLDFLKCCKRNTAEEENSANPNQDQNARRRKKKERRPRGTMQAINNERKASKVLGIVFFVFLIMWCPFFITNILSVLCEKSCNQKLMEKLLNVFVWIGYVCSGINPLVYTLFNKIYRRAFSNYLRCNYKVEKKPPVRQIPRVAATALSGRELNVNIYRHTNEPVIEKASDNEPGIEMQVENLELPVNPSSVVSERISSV
Description: The measurements were based on the binding of a single concentration of radiolabeled ligand in the presence of various concentrations of unlabeled ligand.
as §2

human M3 receptors = biological target: T5, human M3 receptors (Homo sapiens, UniProt P20309); test: hM3 receptor radioligand binding ([3H]NMS); conditions: pKi reported on a scale of 1 through 5; read-out: M3 (pKi) (converted)
T5 construct: expressed in transfected cells; host or cells: Chinese hamster ovary cells (membranes)
Description: as §1, §2

human H1 receptors = biological target: T6, human H1 receptors (Homo sapiens, UniProt P35367); test: hH1 receptor radioligand binding ([3H]Pyrilamine); conditions: pKi reported on a scale of 1 through 5
T6 construct: expressed in transfected cells; host or cells: Chinese hamster ovary cells (membranes)
Description: as §1, §2

human M1 receptors = biological target: T7, human M1 receptors (Homo sapiens, UniProt P11229); test: hM1 receptor radioligand binding ([3H]NMS); conditions: pKi reported on a scale of 1 through 5
T7 construct: expressed in transfected cells; host or cells: Chinese hamster ovary cells (membranes)
T7 sequence (P11229 1-460): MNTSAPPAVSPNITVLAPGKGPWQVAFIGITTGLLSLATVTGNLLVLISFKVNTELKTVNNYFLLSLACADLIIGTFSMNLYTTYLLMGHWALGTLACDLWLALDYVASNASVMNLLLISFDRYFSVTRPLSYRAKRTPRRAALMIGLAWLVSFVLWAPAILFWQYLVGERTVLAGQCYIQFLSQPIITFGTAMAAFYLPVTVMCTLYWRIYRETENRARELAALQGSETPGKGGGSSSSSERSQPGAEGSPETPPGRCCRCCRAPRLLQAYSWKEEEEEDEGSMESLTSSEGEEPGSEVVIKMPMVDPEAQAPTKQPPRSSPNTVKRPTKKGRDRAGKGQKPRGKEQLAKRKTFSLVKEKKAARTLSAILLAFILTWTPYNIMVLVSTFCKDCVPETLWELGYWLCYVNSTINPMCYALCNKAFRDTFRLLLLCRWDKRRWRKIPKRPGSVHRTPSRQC
Description: as §1, §2

human 5HT1A receptors = biological target: T8, human 5HT1A receptors (Homo sapiens, UniProt P08908); test: h5-HT1A receptor radioligand binding ([3H]8OH-DPAT); conditions: pKi reported on a scale of 1 through 5
T8 construct: expressed in transfected cells; host or cells: Chinese hamster ovary cells (membranes)
T8 sequence (P08908 1-422): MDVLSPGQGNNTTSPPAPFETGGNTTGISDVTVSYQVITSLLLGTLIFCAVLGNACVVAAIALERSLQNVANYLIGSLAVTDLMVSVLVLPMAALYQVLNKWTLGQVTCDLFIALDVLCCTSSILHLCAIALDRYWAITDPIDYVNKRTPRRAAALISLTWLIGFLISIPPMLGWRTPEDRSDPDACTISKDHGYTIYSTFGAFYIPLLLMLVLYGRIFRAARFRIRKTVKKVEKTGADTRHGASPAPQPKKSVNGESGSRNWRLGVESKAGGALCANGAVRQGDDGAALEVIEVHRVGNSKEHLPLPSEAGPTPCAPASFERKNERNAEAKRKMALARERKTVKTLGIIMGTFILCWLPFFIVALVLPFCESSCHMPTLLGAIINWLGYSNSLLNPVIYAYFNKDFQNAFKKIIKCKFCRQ
Description: as §1, §2

human 5HT7 receptors = biological target: T9, human 5HT7 receptors (Homo sapiens, UniProt P34969); test: h5-HT7 receptor radioligand binding ([3H]5-CT); conditions: pKi reported on a scale of 1 through 5; read-out: 5HT7 (pKi) (converted)
T9 construct: expressed in transfected cells; host or cells: Chinese hamster ovary cells (membranes)
Description: as §1, §2

T6 sequence (P35367 whole entry): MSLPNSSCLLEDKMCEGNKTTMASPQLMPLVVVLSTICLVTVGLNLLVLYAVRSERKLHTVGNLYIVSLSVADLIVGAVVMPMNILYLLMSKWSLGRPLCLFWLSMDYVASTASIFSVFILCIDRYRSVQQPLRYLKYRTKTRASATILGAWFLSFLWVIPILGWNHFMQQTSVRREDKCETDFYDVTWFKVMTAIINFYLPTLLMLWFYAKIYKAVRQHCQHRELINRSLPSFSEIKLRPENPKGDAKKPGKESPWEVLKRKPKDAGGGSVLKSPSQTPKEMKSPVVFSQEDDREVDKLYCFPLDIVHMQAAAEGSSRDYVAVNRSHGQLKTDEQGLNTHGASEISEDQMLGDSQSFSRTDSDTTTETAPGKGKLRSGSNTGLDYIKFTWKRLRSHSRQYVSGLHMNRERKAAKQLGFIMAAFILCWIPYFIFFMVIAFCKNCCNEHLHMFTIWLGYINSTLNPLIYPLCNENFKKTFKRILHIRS
T9 sequence (P34969 whole entry): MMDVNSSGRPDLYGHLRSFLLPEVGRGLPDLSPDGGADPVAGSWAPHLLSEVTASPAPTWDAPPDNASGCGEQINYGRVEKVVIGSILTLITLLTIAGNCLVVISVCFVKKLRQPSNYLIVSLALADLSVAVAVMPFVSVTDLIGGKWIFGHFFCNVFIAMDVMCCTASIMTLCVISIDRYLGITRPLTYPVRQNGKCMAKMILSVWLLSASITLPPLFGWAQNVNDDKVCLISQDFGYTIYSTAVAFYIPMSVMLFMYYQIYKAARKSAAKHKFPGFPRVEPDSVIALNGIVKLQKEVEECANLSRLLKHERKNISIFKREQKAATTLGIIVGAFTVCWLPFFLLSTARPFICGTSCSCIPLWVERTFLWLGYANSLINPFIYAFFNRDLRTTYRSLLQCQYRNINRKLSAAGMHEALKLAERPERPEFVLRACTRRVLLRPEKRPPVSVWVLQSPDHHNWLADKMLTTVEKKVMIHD
T2 sequence (P14416 1-414 isoform P14416-2): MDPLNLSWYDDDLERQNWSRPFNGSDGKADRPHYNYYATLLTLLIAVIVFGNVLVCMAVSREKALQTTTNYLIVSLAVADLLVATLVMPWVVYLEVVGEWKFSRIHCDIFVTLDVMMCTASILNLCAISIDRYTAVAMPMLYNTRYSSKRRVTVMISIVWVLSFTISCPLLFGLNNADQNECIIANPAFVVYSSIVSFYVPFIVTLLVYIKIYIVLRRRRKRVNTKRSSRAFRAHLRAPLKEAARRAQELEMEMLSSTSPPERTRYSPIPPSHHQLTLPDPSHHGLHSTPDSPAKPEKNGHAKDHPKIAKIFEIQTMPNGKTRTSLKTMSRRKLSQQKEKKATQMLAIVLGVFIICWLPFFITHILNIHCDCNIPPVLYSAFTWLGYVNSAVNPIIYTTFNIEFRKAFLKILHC
T3 sequence (P14416 whole entry): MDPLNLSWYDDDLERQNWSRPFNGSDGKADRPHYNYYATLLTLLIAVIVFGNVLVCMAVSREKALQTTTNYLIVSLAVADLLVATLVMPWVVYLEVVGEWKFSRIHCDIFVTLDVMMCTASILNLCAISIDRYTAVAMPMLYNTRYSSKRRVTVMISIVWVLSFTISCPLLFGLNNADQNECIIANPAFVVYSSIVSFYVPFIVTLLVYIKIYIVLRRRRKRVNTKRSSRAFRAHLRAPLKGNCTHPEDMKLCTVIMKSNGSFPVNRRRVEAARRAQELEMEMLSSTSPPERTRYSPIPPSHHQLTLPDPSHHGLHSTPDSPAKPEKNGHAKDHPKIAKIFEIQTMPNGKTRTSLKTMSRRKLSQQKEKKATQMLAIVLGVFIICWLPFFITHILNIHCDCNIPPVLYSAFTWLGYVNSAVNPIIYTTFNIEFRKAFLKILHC
T1 sequence (P14842 whole entry): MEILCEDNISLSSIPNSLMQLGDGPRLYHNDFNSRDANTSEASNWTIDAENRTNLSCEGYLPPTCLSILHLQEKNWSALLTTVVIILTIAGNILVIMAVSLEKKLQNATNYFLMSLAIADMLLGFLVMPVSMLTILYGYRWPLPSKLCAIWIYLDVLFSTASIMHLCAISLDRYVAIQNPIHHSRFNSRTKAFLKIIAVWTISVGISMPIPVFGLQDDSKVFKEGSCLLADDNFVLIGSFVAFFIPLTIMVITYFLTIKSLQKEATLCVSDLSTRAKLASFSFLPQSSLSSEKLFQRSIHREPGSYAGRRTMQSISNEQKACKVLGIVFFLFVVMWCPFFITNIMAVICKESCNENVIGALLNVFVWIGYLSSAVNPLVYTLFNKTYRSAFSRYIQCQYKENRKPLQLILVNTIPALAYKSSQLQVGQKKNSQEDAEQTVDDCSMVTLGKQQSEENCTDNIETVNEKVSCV
T5 sequence (P20309 whole entry): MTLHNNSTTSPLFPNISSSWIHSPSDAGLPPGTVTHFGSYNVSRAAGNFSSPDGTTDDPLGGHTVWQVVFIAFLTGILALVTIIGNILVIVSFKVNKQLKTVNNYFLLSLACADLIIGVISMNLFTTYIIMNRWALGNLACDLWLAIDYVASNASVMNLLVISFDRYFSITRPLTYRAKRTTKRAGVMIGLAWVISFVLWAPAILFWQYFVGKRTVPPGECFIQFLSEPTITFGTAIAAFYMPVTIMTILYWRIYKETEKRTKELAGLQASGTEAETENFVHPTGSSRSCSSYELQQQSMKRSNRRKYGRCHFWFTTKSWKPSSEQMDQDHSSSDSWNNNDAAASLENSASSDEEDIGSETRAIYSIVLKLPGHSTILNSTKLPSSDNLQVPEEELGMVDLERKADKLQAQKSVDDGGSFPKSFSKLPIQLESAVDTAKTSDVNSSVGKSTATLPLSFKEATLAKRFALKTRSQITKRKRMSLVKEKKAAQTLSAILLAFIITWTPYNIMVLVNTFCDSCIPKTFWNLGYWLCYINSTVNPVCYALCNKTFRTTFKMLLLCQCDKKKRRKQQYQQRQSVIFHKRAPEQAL

Compound | Kb (5-HT2A receptor) | Ki [1] | Ki [2] | Ki (human 5HT2C receptors) | Ki (human M3 receptors) | Ki (human H1 receptors) | Ki (human M1 receptors) | Ki (human 5HT1A receptors) | Ki (human 5HT7 receptors)
CCOC(=O)CC1CN(C2=Nc3ccc(Cl)cc3Oc3ccccc32)CCN1 (stereo not drawn) [H, (E)-ethyl 2-(4-(7-chlorodibenzo[b,f][1,4]oxazepin-11-yl)piperazin-2-yl)acetate] | 31.6 to 97.7 nM | 631 to 2450 nM | 631 to 2450 nM | 10 to 97.7 nM | > 10000 nM | 100 to 977 nM | > 10000 nM |  | 
O=C(O)CC1CN(C2=Nc3cc(Cl)ccc3Oc3ccccc32)CCN1 (stereo not drawn) [Compound E, (E)-2-(4-(8-chlorodibenzo[b,f][1,4]oxazepin-11-yl)piperazin-2-yl)acetic acid] | 31.6 to 97.7 nM | > 10000 nM | > 10000 nM | 100 to 977 nM | > 10000 nM | 100 to 977 nM | > 10000 nM | 1000 to 9770 nM | 
C[C@H](O)C[C@H](C)OC(=O)C[C@H]1CN(C2=Nc3cc(Cl)ccc3Oc3ccccc32)CCN1 [EO, (2S,4S)-4-hydroxypentan-2-yl 2-((S)-4-((E)-8-chlorodibenzo[b,f][1,4]oxazepin-11-yl)piperazin-2-yl)acetate] | 10 to 30.9 nM | 631 to 2450 nM |  | 10 to 97.7 nM | > 10000 nM | 10 to 97.7 nM | > 10000 nM | ≤ 9.77 nM | 631 to 1550 nM
COC(=O)CC1CN(C2=Nc3cc(Cl)ccc3Oc3ccccc32)CCN1 (stereo not drawn) [I, (E)-methyl 2-(4-(8-chlorodibenzo[b,f][1,4]oxazepin-11-yl)piperazin-2-yl)acetate] | 10 to 30.9 nM | 2510 to 9770 nM | 2510 to 9770 nM | 10 to 97.7 nM | > 10000 nM | 100 to 977 nM | 5010 to 9770 nM | 100 to 977 nM | 
CN1CCN(C2=Nc3cc(Cl)ccc3Oc3ccccc32)C[C@@H]1CC(=O)OC1CCOCC1 [DZ, (S,E)-tetrahydro-2H-pyran-4-yl 2-(4-(8-chlorodibenzo[b,f][1,4]oxazepin-11-yl)-1-methylpiperazin-2-yl)acetate] | 31.6 to 97.7 nM | 2510 to 9770 nM |  | 100 to 977 nM | > 10000 nM |  |  | 100 to 977 nM | > 10000 nM
COC(C)(C)CCOC(=O)C[C@H]1CN(C2=Nc3cc(Cl)ccc3Oc3ccccc32)CCN1 [EB, (S,E)-3-methoxy-3-methylbutyl 2-(4-(8-chlorodibenzo[b,f][1,4]oxazepin-11-yl)piperazin-2-yl)acetate] | 10 to 30.9 nM | 631 to 2450 nM |  | 10 to 97.7 nM | > 10000 nM | 10 to 97.7 nM | 5010 to 9770 nM | ≤ 9.77 nM | 1580 to 3890 nM

Source: patent US20120178738A1, “DIBENZO [B,F] [1,4]OXAZAPINE COMPOUNDS” (ARYX THERAPEUTICS, INC., priority 2007, published 2012)
